The format of series [1] is in vitro ADME, porcine. The note with it: for distribution in wound tissue (fluorescence): 1 mg mL^−1 FD-4. Here is the method:
It was determined that high-intensity iontophoresis using the HIC-based biofilm treatment system 100 was able to enhance the VAN penetration depth in wound tissues. A high penetration depth would allow effective treatment of bacteria in deeper layers of clinical biofilm infections to minimize biofilm reformation. A fluorescently labeled dextran (M.W.=4 kDa, FD-4) was used to visualize drug distribution in wound tissue immediately after iontophoresis in this test. […] All wound tissues were dehydrated by acetone before sectioning to minimize FD-4 mobility during sample processing. When passive diffusion and 0.5 mA cm^−2 were applied, the fluorescence was indiscernible under microscope. […] This penetration depth was higher than the typical thickness of in vivo S. aureus biofilm infections in skin wounds (150 μm above wound surface and 190 μm below wound surface).
FD-4 penetration and distribution in the MRSA biofilm infected skin wound was evaluated by cryo-section and fluorescent microscopy. Briefly, samples were collected by 8-mm disposable biopsy punch and dehydrated in acetone for 10 to 30 minutes. After being air dried for another 10 to 30 minutes, the samples were embedded in tissue freezing medium (OCT) and sectioned to obtain 10 μm section under −20 ° C. Section samples were then observed under a fluorescent microscope (DMI 6000 B, Leica, Bannockburn, Ill., USA).

The format of series [2] is in vitro ADME. The following applies: for concentration delivered to wound tissues: 5 mg mL^−1 DAP loaded. Here is the method:
Investigations were also performed to determine the iontophoretic antibiotic delivery efficiency of the HIC-based biofilm treatment system 100 using high current intensities. These investigations included an ex vivo antibiotic delivery study using the same MRSA biofilm-infected porcine skin wound model as in the previous section. Vancomycin (VAN) was used here as a model drug, since it is the FDA-approved antibiotic and is the clinical gold standard for combating S. aureus infections.
First the VAN delivery efficiency was tested at different current intensities (from 0 mA cm^−2 (passive diffusion) to 75 mA cm^−2) applied by the HIC-based biofilm treatment system 100 for 1 hour. The drug/buffer chamber 114 of the working device 104 was loaded with 1 mg mL^−1 VAN in this study. The anode side was used as the working device 104 because VAN required anodal iontophoresis. The accumulated concentration of VAN in biofilm infected skin wound was measured immediately after iontophoresis using high performance liquid chromatography (HPLC). […] When 75 mA cm^−2 was used, the VAN concentration in wound tissue increased to 4.5±0.52 mg g^−1. The VAN concentration in wound tissue after passive diffusion, 0.5 mA cm^−2, and 19 mA cm^−2 iontophoresis were also measured. However, they could not be distinguished from the background interference of the residual biofilm components, so no quantitative results were obtained (data not shown). Importantly, the VAN concentration delivered by 75 mA cm^−2 iontophoresis for 1 hour exceeded the minimal biofilm eradication concentration (MBEC) of VAN reported for MRSA biofilm, which was 4 mg g^−1. The ability to deliver a lethal antibiotic concentration into biofilm-infected wounds within a short period of time was critical for biofilm treatment as it would minimize the chance for bacteria to develop adaptive tolerance.
The fetal pig skin samples (approximately 30×30 mm) were immersed in 10% (v/v) bleach for 5 minutes after hair removal. Then, skin samples were sterilized in 70% ethanol for 30 minutes. The surface of skin sample was further cleaned by 10% povidone-iodine and 70% isopropanol to prevent contamination. A 6-mm disposable biopsy punch was used to create an excisional wound. Samples were put into sterile 10-cm petri-dishes filled with sterile PBS (6 mL). The wound was then inoculated with 1×10^8 CFU mL^−1 MRSA bacteria solution (20 μL). The bacteria were allowed to grow in a 37° C. Heratherm™ compact microbiological incubator (ThermoFischer Scientific™, Waltham, Mass., USA) for 48 hours to form mature biofilms.
To evaluate the antibiotic delivery efficacy of VAN by high-intensity current, biofilm infected fetal pig skin wound was used. The DAP test setup was same as that of VAN, except no PBS chamber 122 was used. Instead, the inner surface of the skin wound contacted directly to the hydrogel 120 of the counter device 106. To evaluate the effect of electrical current intensity on the drug delivery efficacy, different current intensities from 0 to 75 mA cm^−2 were applied. To evaluate the effect of loading concentration of antibiotics, different concentrations of VAN and DAP from 1 mg mL^−1 to 10 mg mL^−1 were used. Since VAN is […] and DAP is negatively charged under physiological environment, anode HIC-based device was placed facing biofilm for VAN iontophoresis, and cathode HIC-based device was placed facing biofilm for DAP iontophoresis. Samples were collected immediately after different treatments. The concentrations of antibiotics delivered into skin wound samples were measured by high-performance liquid chromatography (HPLC). The permeation coefficient (Pc, cm s^−1) was then calculated (Pc=J/C, where J is antibiotic delivery flux in tissue samples (μg (cm^2s)^−1, C is the loading concentration of antibiotic solution (μg m L^−1)). […]

A further series concerns HDFa cells. Nature of the series: Cell toxicity of high concentration of antibiotics, LIVE/DEAD stain. It is filed as cell-based, human. The following applies: 20 mg mL^−1 DAP, 24 hour incubation. Here is the method:
(§1) To evaluate the cell toxicity of the high concentration of antibiotics, HaCaT cells and HDFa cells were used. 2×10^4 HaCat cells and 2×10^3 HDFa cells were seeded in each well of a 96-well plate. After being cultured in an incubator under 37° C. and 5% CO2 for 24 hours, 4.5 mg mL^−1 VAN and 20 mg mL^−1 DAP were added to the culture media, respectively. Both HaCat cells and HDFa cells were treated by VAN for two days, and exposed to DAP for one day, respectively. The cell toxicity of the two cells at the end time points were evaluated by LIVE/DEAD stain and visualized by a confocal laser scanning microscope (CLSM, LSM 710, Zeiss, Germany).

A further series concerns HaCaT cells. The series is described as above. The series is classed as cell-based, human. The note with it: 20 mg mL^−1 DAP, 24 hour incubation. Here is the method: as §1
The test system of a further series is planktonic MRSA. Briefly: Time-killing test on planktonic MRSA in stationary phase. The note with it: 5 mg mL^−1 DAP, within 24 hours. It is filed as cell-based, Methicillin-resistant S. aureus (MRSA) USA300. Here is the method:
MRSA bacteria was cultured in LB media in a 37° C. water shaking bath overnight to reach the concentration of 1×10^8 CFU mL^−1. Then, they were diluted to 10^5 CFU mL^−1 in 96-well plates by adding different concentrations of VAN solutions. After incubation for 24 hours without shaking, MIC of VAN to inhibit MRSA growth was measured by a Biotek Synergy H1 hybrid multi-mode microplate reader (BioTek, Winooski, Vt., USA) at OD600. To evaluate the killing time of VAN to bacteria in stationary phase (1×10^8 CFU mL^−1), VAN powder was added to bacteria solution to obtain concentration of 1 mg mL^−1, 3 mg mL^−1, 5 mg mL^−1, and 10 mg mL^−1, respectively, while remaining MRSA concentration of 1×10^8 CFU mL^−1. After incubation in a 37° C. water bath for 1 day, 2 days, 3 days and 4 days, the CFU of MRSA cells was tested by the standard plate spread counting assay, respectively. The time-killing tests of DAP with different concentrations (0.1 mg mL^−1, 0.5 mg mL^−1, 1 mg mL^−1, and 5 mg mL^−1) on MRSA planktonic cells were also performed, with the incubation time up to 24 hours.

Series [3] concerns S. aureus persister cells. The note with it: even at 100×MIC; cited from earlier work.
The test system of a further series is S. gordonii biofilms. The following applies: cited from earlier work.

Read-outs that look alike come from different tables or passages of the source.

In the case of “Fluorescein isothiocyanate (FITC) labeled dextran-4 kDa [FD-4]”, the “distribution in wound tissue (fluorescence)” value in series [1] (0.5 mA cm^−2, 1 hour) is given as “indiscernible”; in series [1] (19 mA cm^−2, 1 hour), “fluorescence could only be seen near the upper boundary of the wound tissue”; in series [1] (75 mA cm^−2, 1 hour), “penetrated the entire thickness of the tissue sample”; in series [1] (passive diffusion, 1 hour), “indiscernible”. Moreover, in series [1] (75 mA cm^−2, 1 hour), the “penetration depth (entire tissue thickness, after dehydration)” value stood at 182.4±12.62 μm. Besides, the “penetration depth (entire tissue thickness, before dehydration)” value in series [1] (75 mA cm^−2, 1 hour) is reported as 955.7±192.56 μm.

Regarding `CCCCCCCCCC(=O)N[C@@H](Cc1c[nH]c2ccccc12)C(=O)N[C@H](CC(N)=O)C(=O)N[C@@H](CC(=O)O)C(=O)N[C@@H]1C(=O)NCC(=O)N[C@@H](CCCN)C(=O)N[C@@H](CC(=O)O)C(=O)N[C@H](C)C(=O)N[C@@H](CC(=O)O)C(=O)NCC(=O)N[C@H](CO)C(=O)N[C@@H]([C@H](C)CC(=O)O)C(=O)N[C@@H](CC(=O)c2ccccc2N)C(=O)O[C@@H]1C` [DAP, Daptomycin], the “Pc at 75 mA cm^−2 higher than 0.5 mA cm^−2 iontophoresis” value in series [2] (5 mg mL^−1 DAP) amounted to 10.1 times. In addition, the “Pc at 75 mA cm^−2 higher than passive diffusion” value in series [2] (5 mg mL^−1 DAP) came out at 12.0 times. Besides, the “permeation coefficient (Pc)” value in series [2] (0.5 mA cm^−2 iontophoresis, 5 mg mL^−1 DAP) was 15.7±3.37 ×10^−6 cm s^−1; in series [2] (75 mA cm^−2 iontophoresis, 5 mg mL^−1 DAP), 158.3±11.18 ×10^−6 cm s^−1; in series [2] (passive diffusion, 5 mg mL^−1 DAP), 13.2±3.15 ×10^−6 cm s^−1. Also, the “concentration delivered into wound tissue” value in series [2] (75 mA cm^−2, 1 hour, 1 mg mL^−1 DAP loaded) stood at 3.3 ± 1.49 mg/g; in series [2] (75 mA cm^−2, 1 hour, 10 mg mL^−1 DAP loaded), 32.8 ± 5.68 mg/g. Moreover, the “concentration delivered to wound tissues” value was determined as 19.9 ± 1.45 mg/g in series [2] (75 mA cm^−2, 1 hour) and 1.7 ± 0.59 mg/g in series [2] (passive diffusion, 1 hour). The “viability of skin cells” value in the series with HDFa cells and with HaCaT cells was “did not have significant impact” in each case. Also, the “bacterial count after incubation (from 10^8 CFU g^−1)” value with planktonic MRSA is 0 CFU g^−1. The “killing of S. aureus persister cells” value in series [3] is on record as “not capable of killing”.

With gentamicin, the “biofilm bacterial count reduction” value in the series with S. gordonii biofilms (0.4 mA cm^−2 with 2 μg mL^−1 gentamicin, 24 hours) is recorded as 4.3 log10 scales. The bacteria count reduction in the series with S. gordonii biofilms (antibiotic alone) is given as 0.8 log10 scale.
